Results taken from patent US20190358343A1, “ADOPTIVE TRANSFER OF CAR T CELLS WITH SURFACE-CONJUGATED DRUG-LOADED NANOPARTICLES AND USES THEREOF” (University of Southern California, priority 2017, published 2019).
Read-outs that look alike come from different tables or passages of the source.

Columns and labels:
[1] = cited from earlier work
PBMCs = test: In vitro XTT assay; assay type: cell-based, human
Text: (§1) Based on the procedure of nanoparticle-cell surface conjugation developed in Stephen et al (2010), we pioneered the utilization of CAR engineered human PBMCs as therapeutic cells that have nanoparticles conjugated to the surface. The nanoparticles encapsulate small molecule inhibitors of the A2a receptor, e.g., SCH 58261, which is highly hydrophobic and is generally unsuitable for systemic infusion. […] Therefore, SCH 58261 is a suitable drug to illustrate the advantage of this T cell-nanoparticle cargo system for the purposes of enhancing CAR T cell therapy by co-delivering therapeutic cells and adjuvant in the same unit. Compare with other compositions or systems to block the A2aR pathway, such as genetically engineering CAR-T cells with the CRISPR/Cas system or receptor siRNA knock down, a major advantage of presently disclosed composition and method is the ability of the drug to affect endogenous T cells and circulating CAR-T cells, as well as the carrier CAR-T cells themselves.

[2] = tested on: tumor cells (SKOV3-CD19+); test: In vitro XTT assay; assay type: cell-based, human
Text: as §1

adenosine receptor A2A = adenosine receptor A2A (Homo sapiens, UniProt P29274); conditions: cited from earlier work
adenosine receptor A2A, sequence (P29274 whole entry, species assumed): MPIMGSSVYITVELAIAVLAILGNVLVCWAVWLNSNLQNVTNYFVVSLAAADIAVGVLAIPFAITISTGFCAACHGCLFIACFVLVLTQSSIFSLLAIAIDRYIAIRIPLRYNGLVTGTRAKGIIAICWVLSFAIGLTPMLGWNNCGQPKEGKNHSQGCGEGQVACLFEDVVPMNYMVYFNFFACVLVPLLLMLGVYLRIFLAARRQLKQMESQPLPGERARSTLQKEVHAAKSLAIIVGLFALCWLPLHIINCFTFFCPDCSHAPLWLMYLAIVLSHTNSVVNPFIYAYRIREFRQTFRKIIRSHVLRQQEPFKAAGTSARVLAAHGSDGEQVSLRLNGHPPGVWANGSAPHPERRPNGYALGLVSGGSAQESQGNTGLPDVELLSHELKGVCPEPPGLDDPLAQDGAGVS

## Nc1nc2c(cnn2CCc2ccccc2)c2nc(-c3ccco3)nn12 [SCH-58261]
[1]
  solubility: poor solubility
PBMCs
  cytotoxic effects: does not have cytotoxic effects
[2]
  cytotoxic effects: does not have cytotoxic effects
[2]; listed as SCH
  cytotoxic effects: not directly affected
Adenosine receptor A2A
  selectivity for A2A over other adenosine receptors: more than 50 times
